{"source": "patent US6342360B1", "about": "(priority 1988, dated 2002)", "key": {"dopamine-D2 receptor [1]": {"target": "T1, dopamine-D2 receptor (Rattus norvegicus, UniProt P61169)", "T1 sequence (P61169 1-415 isoform P61169-2)": "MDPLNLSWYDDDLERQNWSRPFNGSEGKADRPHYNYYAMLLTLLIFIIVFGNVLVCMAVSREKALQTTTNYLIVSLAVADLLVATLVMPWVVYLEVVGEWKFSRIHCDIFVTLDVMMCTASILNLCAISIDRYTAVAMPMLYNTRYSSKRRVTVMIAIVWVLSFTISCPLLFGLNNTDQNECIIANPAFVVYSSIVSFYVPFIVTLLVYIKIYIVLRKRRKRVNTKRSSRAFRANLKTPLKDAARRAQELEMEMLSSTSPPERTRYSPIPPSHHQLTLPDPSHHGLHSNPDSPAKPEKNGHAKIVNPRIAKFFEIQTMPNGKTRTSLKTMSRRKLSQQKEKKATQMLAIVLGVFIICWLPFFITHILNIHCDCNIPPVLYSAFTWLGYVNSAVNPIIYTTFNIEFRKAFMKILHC", "assay": "Adenylate cyclase activity in membranes from GH4ZR7 cells", "assay_type": "biochemical", "design": "Full-length dopamine-D2 cDNA (17) was excised from λGT10 with Sal I; expressed in transfected cells", "conditions": "for efficacy: forskolin-stimulated adenylate cyclase", "protocol": "Adenylate Cyclase Assay: The conversion of α^32P-ATP to ^32P-cAMP was determined essentially as described by Salomon et al. (24). […] Assays carried out in triplicate were initiated by warming to 25° C. and terminated by cooling to 0° C. Trichloroacetic acid (100 μl of 30% solution) was added to each assay, and ^3H-cAMP (30,000 cpm) was added to each tube as an internal standard. The assay volume was increased to 1 ml by addition of water, and tubes were centrifuged (2000 g×10 min). cAMP in the supernatant was isolated by sequential chromatography on columns containing Dowex AG50W-X4 resin and neutral alumina. The 2-ml eluate from each alumina columntwas dissolved in 10 ml of Bio-Safe II (RPI, Mount Prospect, Ill.) for liquid scintillation counting. Calculations: Data from cAMP and PRL assays are expressed as means±standard error for triplicate determinations. Curve-fitting parameters were obtained by nonlinear regression analysis using the Enzfitter program (Elsevier Biosoft). Average affinity, EC50 and IC50 values are geometric means of the indicated number of experiments. In competition experiments, KI values were calculated from experimentally determined IC50 values by the method of Cheng and Prusoff (25)."}, "dopamine-D2 receptor [2]": {"target": "T1, dopamine-D2 receptor", "assay": "cAMP accumulation in GH4ZR7 cells", "protocol": "(§1) cAMP and PRL Assay: Cells were plated in 6-well, 35 mm dishes, 3-7 days prior to experimentation. Cells were pre-incubated in 2 ml/well warm F10+0.1% (−)-ascorbic acid+20 mM Tris (pH 7.2) (FAT) for 5-10 min, followed by addition of 1 ml/well of FAT+100 μm IBMX+experimental compounds, and incubated for 30 min. at 37° C. Experimental compounds were diluted 200- to 1000-fold from stock solutions made immediately prior to assay. […] Media were collected, and the cells were lysed immediately in 1 ml of boiling water. Cell lysates and media were centrifuged (2000×g, 10 min., 4° C.), and the supernatants collected for assay as cell extracts. Cell extracts and media samples were frozen at −20° C. until assay, if not assayed immediately. cAMP was assayed by a specific radioimmunoassay as described (22), with antibody used at 1:500 dilution. After 16 h incubation at 4° C., 20 μl of 10% BSA and 1 ml of 95% ethanol were added consecutively to precipitate the antibody-antigen complex. […] PRL was assayed in the media samples obtained as described above, except that IBMX was omitted during the 30 min incubation in FAT medium. PRL levels were determined by specific radioimmunoassay using Staphyloccus A lysate (IgSorb, The Enzyme Center, Malden, Mass.) to precipitate antigen-antibody complexes (23)."}, "[3]": {"target": "T2, rat dopamine D-2 receptor (Rattus norvegicus, UniProt P61169)", "T2 sequence (P61169 1-415 isoform P61169-2)": "as above", "protocol": "Receptor binding assay: The membrane preparation was thawed, centrifuged at 24,000×g for 20 min., and resuspended in Tris-isosaline except where indicated. […] Assays were carried out in duplicate in a volume of 2 ml for saturation analyses or 1 ml for inhibition analyses. Incubations were initiated by the addition of 15-50 μg of protein, carried out at 37° for 50 min., and stopped by the addition of 10 ml of ice-cold wash buffer (10 mM Tris, pH 7.4, and 0.9% NaCl) to each assay. The samples were filtered through glass-fibre filters (Schleicher & Schuell No. 30) and washed with an additional 10 ml of wash buffer. […] Data were analyzed by nonlinear regression using the data analysis program Enzfitter (Elsevier-Biosoft). […] Averages for KI and KD values are the geometric means. In experiments designed to assess the effect of GTP and NaCl on the binding of DA, fresh tissue was used. Cells were harvested, centrifuged, and Mg^2+ resuspended in Tris-Mg^2+ (50 mM Tris, pH 7.4, and 4 mM MgCl2). Tissue was incubated for 15 min. at 37° in this buffer before re-centrifugation."}, "[4]": {"target": "T2, rat dopamine D-2 receptor", "conditions": "for blockade of inhibition of adenylate cyclase by 10 μM DA: 10 μM (+)-butaclamol in assay, pertussis toxin 50 ng/ml 16 hours on cells", "protocol": "Adenylate cyclase assay: The conversion of [α^32P]ATP to [^32P]cAMP was determined essentially as described by Salomon et al. (14). […] Assays were initiated by warming to 25° and terminated after 20 minutes by cooling to 0°, then adding trichloroacetic acid (100 μl of a 30% solution) to each assay. [^3H]Cyclic AMP (approximately 30,000 cpm) was added to each assay as an internal standard. The assay volume was brought up to 1 ml with water, and tubes were centrifuged for 10 min. at 2000×g. Cyclic AMP in the supernatant was isolated by sequential chromatography on columns containing Dowex AG50W-X4 resin and neutral alumina. The 2-ml eluate from each column of alumina was dissolved in 10 ml of Bio-Safe II (RPI, Mount Prospect, Ill.) for liquid scintillation counting. Dose-response curves for inhibition of adenylate cyclase activity by agonists were analyzed by nonlinear regression using the program Enzfitter. The data were fit to the equation:\nwhere E is the amount of enzyme activity, expressed as percentage of total stimulated activity, A is the concentration of agonists, EC50 is the concentration of agonist causing half-maximal inhibition of enzyme activity, Emax is the enzyme activity observed in the presence of maximally inhibiting concentrations of agonist, expressed as the percentage of total stimulated activity, and N is a slope factor. Averages of EC50 values are the geometric means."}, "rat D2 dopamine receptor": {"target": "rat D2 dopamine receptor (Rattus norvegicus, UniProt P61169)", "sequence (P61169 1-415 isoform P61169-2)": "as above", "protocol": "(§2) The homogenizing solution was centrifuged at 800×g for 10 min. and the pellet was subjected to a second homogenization and centrifugation as before. The supernatants were pooled and centrifuged at 200,000×g for 1 hour. […] In some experiments 100 uM guanosine 5′-triphosphate was included. […] Incubations were initiated by the addition of 15-40 μg of protein, carried out at 37° C. for 50 minutes, and stopped by the addition of 10 ml of ice-cold wash buffer (10 mM Tris, pH=7.4, and 0.9% NaCl) to each assay. The samples were filtered through glass-fiber filters (Schleicher and Schuell No. 30) and washed with an additional 10 ml of wash buffer. The radioactivity retained on the filter was counted using a Beckman LS 1701 scintillation counter. Data were analyzed as previously described (29) except that curves were drawn using the data analysis program Enzfitter. The resulting IC50 values were converted to Ki values by the method of Cheng and Prusoff (30)."}, "[5]": {"target": "human dopamine D2 receptor (Homo sapiens, UniProt P14416)", "sequence (P14416 whole entry)": "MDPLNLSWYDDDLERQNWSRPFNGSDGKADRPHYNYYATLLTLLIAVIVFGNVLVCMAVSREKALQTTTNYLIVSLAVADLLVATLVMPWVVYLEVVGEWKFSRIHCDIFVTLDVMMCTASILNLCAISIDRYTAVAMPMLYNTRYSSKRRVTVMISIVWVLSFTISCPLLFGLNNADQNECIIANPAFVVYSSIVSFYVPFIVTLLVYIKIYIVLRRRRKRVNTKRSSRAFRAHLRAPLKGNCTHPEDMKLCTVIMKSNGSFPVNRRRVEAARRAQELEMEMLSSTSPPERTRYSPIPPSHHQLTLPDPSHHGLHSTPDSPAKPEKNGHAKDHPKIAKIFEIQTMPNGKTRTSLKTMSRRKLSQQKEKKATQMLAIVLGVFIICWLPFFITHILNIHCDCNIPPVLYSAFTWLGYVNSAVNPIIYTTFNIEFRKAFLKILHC", "assay": "[3H]-domperidone binding to L-hPitD2Zem membranes", "protocol": "The 2.5-kb human pituitary cDNA (hPitD2) was cloned into pZem3 (a gift from Dr. E. Mulvihill, Zymogenetics) and co-transfected with the pRSVneo gene into mouse Ltk^− cells by CaPo4 precipitation (10). A stable transfectant (L-hPitD2Zem) was selected and maintained in 750 μg/ml of G418 (Geneticin sulphate, Gibco). Twenty hours prior to the harvesting of membranes, these cells were incubated with 70 μM zinc sulphate. […] For the binding assays, membrane protein was used at 10-15 μg from L-hPitD2Zem, 50-75 μg from L-RGB2Zem-1, and 220-250 μg from rat striatum. […] The filters were washed twice in ice cold 50 mM Tris-HCl, pH 7.4. […] The Bmax, Kd, and IC50 values were determined as previously described (14)."}, "[6]": {"system": "D2 dopamine receptors in rat striatal membranes", "assay": "3H-spiperone binding to rat striatal membranes", "conditions": "at the concentrations used", "protocol": "as §2"}, "dopamine-D2 receptor [7]": {"target": "T1, dopamine-D2 receptor", "assay": "Acute PRL release in GH4ZR7 cells", "assay_type": "cell-based", "design": "Full-length dopamine-D2 cDNA (17) was excised from λGT10 with Sal I; expressed in transfected cells", "conditions": "30 min", "protocol": "as §1"}}, "note": "“And” between values parts separate entries of the source, which are not always exact repeats. Identical values can stand only once. “Also recorded” adds a separate entry of the source. Like-named read-outs stand apart in the source and are kept apart here."}
{"molecule": "CCCN1CCCC(c2cccc(O)c2)C1", "note": "(single isomer, unassigned; (+)) [(+)3-PPP, 3-(3-hydroxyphenyl)-N-n-propylpiperidine]", "values": [{"measurement": "efficacy", "setting": "dopamine-D2 receptor [1]", "value": "as efficacious as dopamine"}]}
{"molecule": "CCN1CCCC1CNC(=O)c1cc(S(N)(=O)=O)ccc1OC", "note": "(single isomer, unassigned; (+)) [(+)-sulpiride]", "values": [{"measurement": "blockade of dopamine inhibition of cAMP accumulation", "setting": "dopamine-D2 receptor [2]", "value": "did not block; also recorded: little or no effect"}]}
{"molecule": "CCCN1CCCC(c2cccc(O)c2)C1", "note": "(single isomer, unassigned; (-)) [(−)3-PPP, 3-(3-hydroxyphenyl)-N-n-propylpiperidine]", "values": [{"measurement": "Hill coefficient", "setting": "[3]; single experiment FIG. 9A", "value": 0.89}, {"measurement": "efficacy", "setting": "dopamine-D2 receptor [1]", "value": "did not consistently reduce"}]}
{"molecule": "CCN1CCC[C@H]1CNC(=O)c1cc(S(N)(=O)=O)ccc1OC", "note": "[(−)-sulpiride]", "values": [{"measurement": "blockade of dopamine inhibition of cAMP accumulation", "setting": "dopamine-D2 receptor [2]", "value": "blocked dopamine action"}, {"measurement": "effect of antagonist alone on basal cAMP", "setting": "dopamine-D2 receptor [2]; absence of dopamine", "value": "did not alter basal cAMP levels"}]}
{"molecule": "CC(C)C[C@H]1C(=O)N2CCC[C@H]2[C@]2(O)O[C@](NC(=O)[C@@H]3C=C4c5cccc6[nH]c(Br)c(c56)C[C@H]4N(C)C3)(C(C)C)C(=O)N12", "note": "[bromocriptine]", "values": [{"measurement": "Ki", "setting": "[3]; [3H]spiroperidol 0.2 nM, GTP and NaCl present, geometric mean of 2 experiments", "value": 2.4, "unit": "nM"}, {"measurement": "rank among the six compounds tested", "setting": "[3]; inhibition of radioligand binding, LZR1", "value": "most potent"}, {"measurement": "Ki", "setting": "[3]; read-out: KI for inhibition of [3H]spiroperidol binding, single experiment FIG. 9A, radioligand 230 pM", "value": 5, "unit": "nM"}, {"measurement": "Ki", "setting": "[3]; read-out: mean KI, 0.1 mM GTP and 120 mM NaCl, LZR1 membranes", "value": 2, "unit": "nM"}, {"measurement": "Hill coefficient", "setting": "[3]; single experiment FIG. 9A", "value": 1.05}, {"measurement": "EC50", "setting": "[4]", "value": "45 nM and 40 nM"}, {"measurement": "Max (maximal inhibition of adenylate cyclase activity)", "setting": "[4]", "value": "17 ± 1", "unit": "%"}, {"measurement": "agonist activity / efficacy", "setting": "[4]", "value": "less efficacious than DA"}, {"measurement": "inhibition of forskolin-stimulated adenylate cyclase activity", "setting": "dopamine-D2 receptor [1]", "value": 23, "unit": "%"}, {"measurement": "maximal inhibition", "setting": "dopamine-D2 receptor [1]", "value": 23, "unit": "%"}, {"measurement": "EC50", "setting": "dopamine-D2 receptor [1]; read-out: EC50", "value": 6, "unit": "nM"}, {"measurement": "EC50", "setting": "dopamine-D2 receptor [1]; read-out: EC50, inhibition of adenylate cyclase", "value": 5, "unit": "nM"}]}
{"molecule": "NCCc1ccc(O)c(O)c1", "note": "[dopamine]", "values": [{"measurement": "effect on basal, VIP-stimulated or TRH-stimulated PRL secretion", "setting": "GH4C1 cells; GH4C1 cells, data not shown", "value": "no effect"}, {"measurement": "effect on extracellular cAMP levels", "setting": "GH4C1 cells; wild-type GH4C1 cells, VIP omitted or present", "value": "no effect"}]}
{"molecule": "O=C(c1ccc(F)cc1)C1CCN(CCn2c(=O)[nH]c3ccccc3c2=O)CC1", "note": "[ketanserin]", "values": [{"measurement": "potency at inhibiting 3H-spiperone binding", "setting": "rat D2 dopamine receptor; L-RGB2Zem-1 membranes", "value": "much less potent"}]}
{"molecule": "CN1CCN2c3ccccc3Cc3ccccc3C2C1", "note": "(centres unmarked) [mianserin]", "values": [{"measurement": "inhibition of domperidone binding", "setting": "[5]; [3H]-domperidone 1 nM", "value": "only at very high concentrations"}]}
{"molecule": "O=C(CCCN1CCC2(CC1)C(=O)NCN2c1ccccc1)c1ccc(F)cc1", "note": "[spiperone]", "values": [{"measurement": "blockade of dopamine inhibition of cAMP accumulation", "setting": "dopamine-D2 receptor [2]", "value": "blocked dopamine action"}, {"measurement": "effect of antagonist alone on basal cAMP", "setting": "dopamine-D2 receptor [2]", "value": "did not alter basal cAMP levels"}]}
{"molecule": "CCN1CCCC1CNC(=O)c1cc(S(N)(=O)=O)ccc1OC", "note": "(centres unmarked) [sulpiride]", "values": [{"measurement": "share of (+)-butaclamol-displaceable binding not inhibited", "setting": "[6]", "value": "10-15%"}]}
{"molecule": "(+)-butaclamol", "values": [{"measurement": "potency at inhibiting 3H-spiperone binding", "setting": "rat D2 dopamine receptor", "value": "most potent inhibitors"}, {"measurement": "blockade of inhibition of adenylate cyclase by 10 μM DA", "setting": "[4]", "value": "prevented"}]}
{"molecule": "(−)-butaclamol", "values": [{"measurement": "inhibition of domperidone binding", "setting": "[5]", "value": "only at very high concentrations"}]}
{"molecule": "VIP: vasoactive intestinal peptide", "values": [{"measurement": "VIP-induced enhancement of cAMP levels", "setting": "dopamine-D2 receptor [2]", "value": "8-12 times basal levels"}, {"measurement": "enhancement of PRL secretion", "setting": "dopamine-D2 receptor [7]", "value": 1.5, "unit": "fold"}, {"measurement": "total adenylate cyclase activity stimulated", "setting": "dopamine-D2 receptor [1]; 200 nM VIP, n=3", "value": "22±7", "unit": "pmol/mg protein/min"}]}
{"molecule": "pertussis toxin", "values": [{"measurement": "blockade of inhibition of adenylate cyclase by 10 μM DA", "setting": "[4]", "value": "blocked"}, {"measurement": "forskolin-stimulated adenylate cyclase activity versus control membranes", "setting": "[4]; membranes from pertussis toxin-treated cells", "value": "approximately 2.5 fold"}, {"measurement": "effect of pretreatment on inhibition of basal and VIP-stimulated cAMP by dopamine", "setting": "dopamine-D2 receptor [2]; pertussis toxin 50 ng/ml, 16 h", "value": "abolished"}, {"measurement": "effect of pretreatment on dopamine inhibition of forskolin-stimulated adenylate cyclase", "setting": "dopamine-D2 receptor [1]; pertussis toxin 16 h", "value": "uncoupled"}]}
